Consider 22 molecules from patent US20260317320A1, “C5AR1 ANTAGONISTS AND USES THEREOF” (Vanqua Bio, Inc., priority 2022, published 2026).

A word on the IC50: it is the concentration at which inhibition is half-maximal.

The structures appear in SMILES notation. Read-outs that look alike come from different tables or passages of the source.

The target in test [1] is T1, complement C5a receptor 1 (C5aR1) (Homo sapiens, UniProt P21730).
T1 construct: β-galactosidase fragment (PathHunter enzyme complementation); host or cells: CHO-K1 (PathHunter CHO-K1 C5aR1 β-arrestin cell line)
T1 sequence (P21730 1-350): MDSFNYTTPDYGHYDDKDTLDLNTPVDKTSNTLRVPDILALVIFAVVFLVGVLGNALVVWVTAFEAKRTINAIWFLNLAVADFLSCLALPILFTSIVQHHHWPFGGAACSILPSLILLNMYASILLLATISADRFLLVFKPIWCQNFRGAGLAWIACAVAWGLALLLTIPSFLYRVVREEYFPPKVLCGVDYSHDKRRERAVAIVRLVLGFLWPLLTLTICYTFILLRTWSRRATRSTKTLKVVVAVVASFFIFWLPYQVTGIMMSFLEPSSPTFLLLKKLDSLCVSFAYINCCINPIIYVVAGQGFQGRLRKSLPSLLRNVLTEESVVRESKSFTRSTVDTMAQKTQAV
Briefly: β-arrestin recruitment via C5aR1 activation in live CHO-K1 cells (PathHunter), antagonist mode. The format is cell-based. The note with it: antagonist mode; recombinant hC5a (EC90) as competing natural agonist; live CHO-K1 cells; read-out: [Antagonist] B-arrestin2 recruitment: Average IC50. The method in brief:
(§1)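 Live CHO-K1 cells expressing β-galactosidase fragments fused to β-arrestin and C5aR1; recruitment is read by fragment complementation. In agonist mode compounds are tested alone; in antagonist mode they compete against recombinant hC5a at EC90. IC50 reported in binned ranges.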
On the technique in general: Activated receptors often draw arrestin, which recruitment assays turn into a signal.

Test [2] deals with T1, complement C5a receptor 1 (C5aR1). Briefly: β-arrestin recruitment via C5aR1 activation in live CHO-K1 cells (PathHunter), agonist mode. In kind it is cell-based. The method in brief:
as §1

For the molecule `Cc1cnc2cc(N3CCN(c4c(C)cccc4F)CC3)c(=O)n(Cc3ncccc3C(F)(F)F)c2n1` [compound 67, 7-(4-(2-Fluoro-6-methylphenyl)piperazin-1-yl)-3-methyl-5-((3-(trifluoromethyl)pyridin-2-yl)methyl)pyrido[2,3-b]pyrazin-6(5H)-one], in test [1], the IC50 is less than 500 nM. Moreover, the “[Agonist] B-arrestin2 recruitment: Average EC50 (nM)” value (shortened to “[Agonist] B-arrestin2 recruitment”) in test [2] is on record as “Non-Active”.

Turning to `Cc1cccc(F)c1N1CC(c2cc3nccnc3n(Cc3ncccc3C(F)(F)F)c2=O)C1` [compound 48, 7-(1-(2-Fluoro-6-methylphenyl)azetidin-3-yl)-5-((3-(trifluoromethyl)pyridin-2-yl)methyl)pyrido[2,3-b]pyrazin-6(5H)-one], in test [1], the IC50 fell in the range of 500 to 5000 nM. In test [2], the “[Agonist] B-arrestin2 recruitment” value was “Non-Active”.

`Cc1cccc(F)c1N1CCC(n2c(=O)c3ccccc3n(Cc3ncccc3C(F)(F)F)c2=O)CC1` [compound 36, 3-(1-(2-Fluoro-6-methylphenyl)piperidin-4-yl)-1-((3-(trifluoromethyl)pyridin-2-yl)methyl)quinazoline-2,4(1H,3H)-dione]: the IC50 in test [1] was in the range of 500 to 5000 nM. Also, the “[Agonist] B-arrestin2 recruitment” value in test [2] was “Non-Active”.

On to `Cc1ncc2cc([C@H]3CC[C@H](c4c(C)cccc4F)CC3)c(=O)n(Cc3ncccc3OC(F)(F)F)c2n1` [compound 198, 6-((1r,4r)-4-(2-Fluoro-6-methylphenyl)cyclohexyl)-2-methyl-8-((3-(trifluoromethoxy)pyridin-2-yl)methyl)pyrido[2,3-d]pyrimidin-7(8H)-one], for which the IC50 in test [1] is less than 500 nM. In test [2], the “[Agonist] B-arrestin2 recruitment” value is “Non-Active”.

Take `Cc1cnc2c(C)c(C3CCN(c4c(C)ccnc4F)CC3)c(=O)n(Cc3nccnc3C(F)(F)F)c2n1` [compound 63, 7-(1-(2-Fluoro-4-methylpyridin-3-yl)piperidin-4-yl)-3,8-dimethyl-5-((3-(trifluoromethyl)pyrazin-2-yl)methyl)pyrido[2,3-b]pyrazin-6(5H)-one]: the half-maximal inhibitory concentration (IC50) in test [1] was 500 to 5000 nM. For the same molecule, the “[Agonist] B-arrestin2 recruitment” value in test [2] was “Non-Active”.

`Cc1cnc2cc([C@H]3CC[C@@H](c4c(C)cccc4F)CC3)c(=O)n(Cc3nccnc3OC(F)F)c2n1` [168A, 5-((3-(Difluoromethoxy)pyrazin-2-yl)methyl)-7-((1s,4s)-4-(2-fluoro-6-methylphenyl)cyclohexyl)-3-methylpyrido[2,3-b]pyrazin-6(5H)-one]: the IC50 in test [1] lay in the range of 500 to 5000 nM. For the same molecule, in test [2] (at 10 μM), the “[Agonist] B-arrestin2 recruitment” value was “Non-Active at 10 μM”.

For `Cc1cnc2cc([C@H]3CC[C@@H](c4c(C)ccnc4F)CC3)c(=O)n(Cc3ncccc3C(F)(F)F)c2n1` [147A, 7-((1s,4s)-4-(2-Fluoro-4-methylpyridin-3-yl)cyclohexyl)-3-methyl-5-((3-(trifluoromethyl)pyridin-2-yl)methyl)pyrido[2,3-b]pyrazin-6(5H)-one], the IC50 in test [1] was less than 500 nM. In addition, in test [2] (at 10 μM), the “[Agonist] B-arrestin2 recruitment” value is on record as “Non-Active at 10 μM”.

In the case of `COc1cnc2c(cc(C3CCN(c4c(C)cccc4F)CC3)c(=O)n2Cc2ncccc2C(F)(F)F)n1` [compound 65, 7-(1-(2-Fluoro-6-methylphenyl)piperidin-4-yl)-2-methoxy-5-((3-(trifluoromethyl)pyridin-2-yl)methyl)pyrido[2,3-b]pyrazin-6(5H)-one], the IC50 in test [1] was in the range of 500 to 5000 nM. For the same molecule, the “[Agonist] B-arrestin2 recruitment” value in test [2] is “Non-Active”.

Take `Cc1cnc2cc([C@H]3CC[C@H](c4cnccc4C(F)F)CC3)c(=O)n(Cc3ncccc3C(F)(F)F)c2n1` [compound 178, 7-((1r,4r)-4-(4-(Difluoromethyl)pyridin-3-yl)cyclohexyl)-3-methyl-5-((3-(trifluoromethyl)pyridin-2-yl)methyl)pyrido[2,3-b]pyrazin-6(5H)-one]: the IC50 in test [1] was less than 500 nM. In addition, in test [2], the “[Agonist] B-arrestin2 recruitment” value is recorded as “Non-Active”.

Regarding `Cc1ccc2cc([C@H]3CC[C@H](c4c(C)ccnc4F)CC3)c(=O)n(Cc3ncccc3CC(F)(F)F)c2n1` [compound 259, 7-Methyl-3-[(1r,4r)-4-(2-fluoro-4-methyl-3-pyridyl)cyclohexyl]-1-{[3-(2,2,2-trifluoroethyl)-2-pyridyl]methyl}-1,8-diaza-2(1H)-naphthalenone], the IC50 in test [1] is less than 500 nM. The “[Agonist] B-arrestin2 recruitment” value in test [2] is reported as “Non-Active”.

Consider `Cc1ccc2cc([C@H]3CC[C@H](c4c(C)cccc4F)CC3)c(=O)n(Cc3nccnc3C(F)F)c2n1` [compound 210, 1-((3-(Difluoromethyl)pyrazin-2-yl)methyl)-3-((1r,4r)-4-(2-fluoro-6-methylphenyl)cyclohexyl)-7-methyl-1,8-naphthyridin-2(1H)-one], for which the IC50 in test [1] was less than 500 nM. Further, in test [2] (at 10 μM), the “[Agonist] B-arrestin2 recruitment” value was “Non-Active at 10 μM”.

For the molecule `COc1nccnc1Cn1c(=O)c(N2CCN(c3c(C)cccc3F)CC2)cc2ncc(C)nc21` [compound 125, 7-(4-(2-Fluoro-6-methylphenyl)piperazin-1-yl)-5-((3-methoxypyrazin-2-yl)methyl)-3-methylpyrido[2,3-b]pyrazin-6(5H)-one], the IC50 in test [1] is 500 to 5000 nM. For the same molecule, the “[Agonist] B-arrestin2 recruitment” value in test [2] is “Non-Active”.

Take `Cc1ccc2cc([C@H]3CC[C@H](c4c(C)ccnc4F)CC3)c(=O)n(Cc3ncccc3C(F)(F)F)c2n1` [compound 262, 7-Methyl-3-[(1r,4r)-4-(2-fluoro-4-methyl-3-pyridyl)cyclohexyl]-1-{[3-(trifluoromethyl)-2-pyridyl]methyl}-1,8-diaza-2(1H)-naphthalenone]: the IC50 in test [1] is less than 500 nM. Moreover, the “[Agonist] B-arrestin2 recruitment” value in test [2] is reported as “Non-Active”.

In the case of `Cc1cnc2cc([C@H]3CC[C@@H](c4c(C)cccc4F)C3)c(=O)n(Cc3ncccc3C(F)(F)F)c2n1` [171A, 7-((1S,3R)-3-(2-Fluoro-6-methylphenyl)cyclopentyl)-3-methyl-5-((3-(trifluoromethyl)pyridin-2-yl)methyl)pyrido[2,3-b]pyrazin-6(5H)-one], the IC50 in test [1] is less than 500 nM. For the same molecule, in test [2] (at 10 μM), the “[Agonist] B-arrestin2 recruitment” value is reported as “Non-Active at 10 μM”.

On to `Cc1cnc2cc([C@H]3CC[C@H](c4cnccc4C(F)(F)F)CC3)c(=O)n(Cc3ncccc3C(F)(F)F)c2n1` [150B, 3-Methyl-5-((3-(trifluoromethyl)pyridin-2-yl)methyl)-7-((1r,4r)-4-(4-(trifluoromethyl)pyridin-3-yl)cyclohexyl)pyrido[2,3-b]pyrazin-6(5H)-one], for which the IC50 in test [1] was less than 500 nM. For the same molecule, the “[Agonist] B-arrestin2 recruitment” value in test [2] is “Non-Active”.

In the case of `Cc1cnc2cc([C@H]3CC[C@H](c4c(F)cccc4C(F)(F)F)CC3)c(=O)n(Cc3ncccc3OC(F)(F)F)c2n1` [compound 216, 7-((1r,4r)-4-(2-Fluoro-6-(trifluoromethyl)phenyl)cyclohexyl)-3-methyl-5-((3-(trifluoromethoxy)pyridin-2-yl)methyl)pyrido[2,3-b]pyrazin-6(5H)-one], the IC50 in test [1] was 500 to 5000 nM. Also, the “[Agonist] B-arrestin2 recruitment” value in test [2] (at 10 μM) is listed as “Non-Active at 10 μM”.

`CCOc1nccnc1Cn1c(=O)c([C@H]2CC[C@H](c3c(C)cccc3F)CC2)cc2ncc(C)nc21` [compound 169, 5-((3-Ethoxypyrazin-2-yl)methyl)-7-((1r,4r)-4-(2-fluoro-6-methylphenyl)cyclohexyl)-3-methylpyrido[2,3-b]pyrazin-6(5H)-one]: the IC50 in test [1] is less than 500 nM. Moreover, the “[Agonist] B-arrestin2 recruitment” value in test [2] (at 10 μM) is given as “Non-Active at 10 μM”.

For the molecule `Cc1cccc(F)c1N1CCC(c2nc3nccnc3n(Cc3ccccc3OC(F)F)c2=O)CC1` [compound 46, 1-(2-(difluoromethoxy)benzyl)-3-(1-(2-fluoro-6-methylphenyl)piperidin-4-yl)pyrazino[2,3-b]pyrazin-2(1H)-one], the IC50 in test [1] was in the range of 500 to 5000 nM. Also, in test [2], the “[Agonist] B-arrestin2 recruitment” value was “Non-Active”.

As for `Cc1cccc(F)c1N1CCC(c2cc3nccnc3n([C@@H]3CCCc4ccccc43)c2=O)CC1` [53a, (R)-7-(1-(2-Fluoro-6-methylphenyl)piperidin-4-yl)-5-(1,2,3,4-tetrahydronaphthalen-1-yl)pyrido[2,3-b]pyrazin-6(5H)-one], the IC50 in test [1] lay within 5000 to 100000 nM. Besides, the “[Agonist] B-arrestin2 recruitment” value in test [2] was “Non-Active”.

With `O=c1c(C2CCN(c3nccnc3F)CC2)cc2nccnc2n1Cc1ccccc1C(F)(F)F` [compound 34, 7-(1-(3-Fluoropyrazin-2-yl)piperidin-4-yl)-5-(2-(trifluoromethyl)benzyl)pyrido[2,3-b]pyrazine-6(5H)-one], the IC50 in test [1] is more than 100000 nM. Further, in test [2], the “[Agonist] B-arrestin2 recruitment” value was “Non-Active”.

As for `Cc1ccnc(F)c1N1CCC(c2cc3nccnc3n(Cc3nccnc3C(F)(F)F)c2=O)CC1` [compound 129, 7-(1-(2-Fluoro-4-methylpyridin-3-yl)piperidin-4-yl)-5-((3-(trifluoromethyl)pyrazin-2-yl)methyl)pyrido[2,3-b]pyrazin-6(5H)-one], in test [1], the IC50 was less than 500 nM. In addition, the “[Agonist] B-arrestin2 recruitment” value in test [2] is “Non-Active”.

Take `Cc1cnc2cc([C@H]3CC[C@H](c4c(C)cncc4F)CC3)c(=O)n(Cc3ncccc3C(F)(F)F)c2n1` [compound 237, 7-((1r,4r)-4-(3-Fluoro-5-methylpyridin-4-yl)cyclohexyl)-3-methyl-5-((3-(trifluoromethyl)pyridin-2-yl)methyl)pyrido[2,3-b]pyrazin-6(5H)-one]: the IC50 in test [1] is less than 500 nM. The “[Agonist] B-arrestin2 recruitment” value in test [2] is on record as “Non-Active”.
